The results in this text go back to ChEMBL document CHEMBL1201862, “PubChem BioAssay data set” (2004).

The structures appear in SMILES notation. Where a name gives a salt, the structure may show the parent alone.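 Cultured in 96-well plates, cells were exposed to test compound for 48 hours across five concentrations. Abbreviation: GI50, concentration required for 50% inhibition of growth.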 Calls of active or inactive are those of the source. No stated cut-off is given here; in the data, active = GI50 up to about 1.1 µM and inactive = higher.

Some test systems named below: M14; UO-31; COLO 205; PC-3; CCRF-CEM; NCI-H460; A549; OVCAR-3; U-251; OVCAR-5; SK-MEL-28; MOLT-4; IGROV-1; Malme-3M; NCI/ADR-RES; SW-620; HCT-116; HCT-15; MDA-N; EKVX.
What all share (test): NCI-60 cell line screen, 48 h

`N#Cc1c(Cl)cc(C#N)n2c1nc1ccccc12`: the GI50 in the assay with M14 was 9.71 µM (inactive); with UO-31 it was 7.85 µM (inactive); in the assay with COLO 205, 4.4 µM (inactive); in the assay on PC-3, 18.2 µM (inactive); with CCRF-CEM, 1.3 µM (inactive); in the assay on NCI-H460, 14.9 µM (inactive). Also, the GI50 in the assay on A549 was 15 µM (inactive); in the assay on OVCAR-3 it was 5.28 µM (inactive); with U-251 it was 20.8 µM (inactive); with OVCAR-5, 16.4 µM (inactive); in the assay with SK-MEL-28 it was 13.3 µM (inactive); with MOLT-4, 2.3 µM (inactive). Also, the GI50 with IGROV-1 is 14.6 µM (inactive); in the assay on Malme-3M, 5.35 µM (inactive); with NCI/ADR-RES it was 15.1 µM (inactive); in the assay on SW-620, 3.47 µM (inactive); in the assay on HCT-116, 4.11 µM (inactive); in the assay with HCT-15, 6.07 µM. For the same molecule, the GI50 in the assay with MDA-N was 10.6 µM (inactive); in the assay with EKVX it was 20.7 µM (inactive).

With `C#C[C@]1(O)CC[C@H]2[C@@H]3CCC4=C/C(=N/CCOC(=O)c5cccc6c(=O)c7ccccc7[nH]c56)CC[C@@H]4[C@H]3CC[C@@]21C`, the GI50 with M14 is 41.7 µM (inactive); in the assay with UO-31 it was 37.8 µM (inactive); with COLO 205, 37.1 µM (inactive); in the assay on PC-3 it was 18.4 µM (inactive); in the assay on CCRF-CEM, 35.7 µM (inactive); in the assay on NCI-H460, 32.7 µM (inactive). Further, the GI50 in the assay on A549 was 41.7 µM (inactive); in the assay on OVCAR-3, 33.5 µM (inactive); with U-251, 16.4 µM (inactive); with OVCAR-5, > 100 µM (inactive); in the assay with SK-MEL-28, 47.6 µM (inactive); in the assay on MOLT-4, 25.9 µM (inactive). In addition, the GI50 with IGROV-1 is 29.5 µM (inactive); with Malme-3M, 34.6 µM (inactive); with NCI/ADR-RES it was 40.9 µM (inactive); in the assay with SW-620, 45.2 µM (inactive); with HCT-116 it was 42.9 µM (inactive); in the assay with HCT-15 it was 45 µM. Besides, the results for the GI50 in the assay on MDA-N and in the assay on EKVX were 50.7 µM (inactive) and 46.3 µM (inactive), respectively.

As to `CCOC(=O)c1c(SCCO)n(-c2ccccc2)c(=S)n(-c2ccccc2)c1=O`, the GI50 with M14, in the assay with UO-31, in the assay with COLO 205, in the assay with PC-3, in the assay with CCRF-CEM and in the assay on NCI-H460 was > 100 µM (inactive) in each case. Also, the GI50 in the assay with A549, in the assay with OVCAR-3, with U-251, in the assay on OVCAR-5, with SK-MEL-28 and with MOLT-4 was > 100 µM (inactive) throughout. In addition, the GI50 was > 100 µM (inactive) in the assay on IGROV-1; > 100 µM (inactive) with Malme-3M; > 100 µM (inactive) in the assay on NCI/ADR-RES; > 100 µM (inactive) with SW-620; > 100 µM (inactive) with HCT-116; above 100 µM in the assay with HCT-15. Moreover, the GI50 in the assay on MDA-N and with EKVX was > 100 µM (inactive) in each case.

For `Cc1cc2c(cc1-c1cc3c(cc1C)C(C(C)C)=C(O)C(=O)/C3=C\NCC1CCCN3CCCCC13)/C(=C/NCC1CCCN3CCCCC13)C(=O)C(O)=C2C(C)C` (stereo not given), the GI50 in the assay on M14 is 5.02 µM (inactive); with UO-31 it was 3.43 µM (inactive); in the assay on COLO 205, 3.47 µM (inactive); in the assay on PC-3, 5.02 µM (inactive); in the assay with CCRF-CEM it was 2.83 µM (inactive); in the assay on NCI-H460, 5.14 µM (inactive). The GI50 in the assay on A549 was 4.93 µM (inactive); in the assay on OVCAR-3, 3.01 µM (inactive); with U-251 it was 2.9 µM (inactive); with OVCAR-5, 10.8 µM (inactive); in the assay on SK-MEL-28, 12.1 µM (inactive); in the assay with MOLT-4, 3.52 µM (inactive). The GI50 with IGROV-1 was 5.97 µM (inactive); with Malme-3M, 10.3 µM (inactive); in the assay with NCI/ADR-RES, 7.36 µM (inactive); in the assay with SW-620, 5.48 µM (inactive); in the assay on HCT-116, 4.72 µM (inactive); with HCT-15, 5.33 µM. The figures for the GI50 in the assay on MDA-N and in the assay with EKVX were 5.78 µM (inactive) and 7.98 µM (inactive), respectively.

Consider `NCCS` [CYSTEAMINE HYDROCHLORIDE], for which the GI50 with M14, in the assay with UO-31, in the assay with COLO 205, in the assay on PC-3, in the assay with CCRF-CEM and with NCI-H460 was > 100 µM (inactive) in each case. Besides, the GI50 with A549, in the assay with OVCAR-3, in the assay with U-251, with OVCAR-5, in the assay on SK-MEL-28 and in the assay on MOLT-4 was > 100 µM (inactive) throughout. For the same molecule, the GI50 was > 100 µM (inactive) in the assay with IGROV-1; > 100 µM (inactive) in the assay on Malme-3M; > 100 µM (inactive) in the assay with NCI/ADR-RES; > 100 µM (inactive) with SW-620; > 100 µM (inactive) in the assay with HCT-116; above 100 µM in the assay with HCT-15. Further, the GI50 in the assay on MDA-N and with EKVX was > 100 µM (inactive) in each case.
